From patent US12570642B2, “GLP-IR modulating compounds” (Gilead Sciences, Inc., priority 2021, dated 2026)
pEC50: −log10 of the molar value.

Each compound was assayed against GLP-1R (Homo sapiens, UniProt P43220) (assay: GLP-1R Activation - cAMP Assay). Details: […]; each compound run on one of the two cAMP assays (Assay 1 or Assay 2, not specified).
Format: cell-based
Description: GLP-1R Activation—cAMP Assay 1
GLP-1R activation by compounds of the present disclosure were quantified by measuring cAMP increase in CHO cells stably expressing GLP-1R (MultiSpan product #C1267-1a). The cells were harvested and plated in growth medium (DMEM/F-12 (Corning product #10-090-CV) supplemented with 10% FBS (HyClone product #SH30071-03), penicillin/streptomycin (Corning product #30-002CI) and 10 μg/ml puromycin (Gibco product #A11138-03)) at 1,000 cells/well in a 384-well plate (Greiner product #781080). The cells were then incubated overnight at 37° C., 5% CO2. The next day, the medium was removed and the cells were washed with DPBS (Corning product #21-031-CM) before adding the assay medium (HBSS, Corning product #21-023-CV) with 20 mM Hepes (Gibco product #15630-080) and 0.1% BSA (Rockland Immunochemicals product #BSA-1000)). Following the medium change, the cells were incubated for 1 hour at 37° C., 5% CO2. The tested GLP-1 compound was added to the cells in a 10-point dose response followed by a 30 minutes incubation at 37° C., 5% CO2. cAMP concentration increase was then detected using Cisbio's cAMP Gs Dynamic Kit (product #62AM4PEC) according to the manufacturer's protocol. The response was plotted against the log of the agonist concentration and fitted to a sigmoidal equation to determine the EC50.

GLP-1R, sequence (P43220 24-463): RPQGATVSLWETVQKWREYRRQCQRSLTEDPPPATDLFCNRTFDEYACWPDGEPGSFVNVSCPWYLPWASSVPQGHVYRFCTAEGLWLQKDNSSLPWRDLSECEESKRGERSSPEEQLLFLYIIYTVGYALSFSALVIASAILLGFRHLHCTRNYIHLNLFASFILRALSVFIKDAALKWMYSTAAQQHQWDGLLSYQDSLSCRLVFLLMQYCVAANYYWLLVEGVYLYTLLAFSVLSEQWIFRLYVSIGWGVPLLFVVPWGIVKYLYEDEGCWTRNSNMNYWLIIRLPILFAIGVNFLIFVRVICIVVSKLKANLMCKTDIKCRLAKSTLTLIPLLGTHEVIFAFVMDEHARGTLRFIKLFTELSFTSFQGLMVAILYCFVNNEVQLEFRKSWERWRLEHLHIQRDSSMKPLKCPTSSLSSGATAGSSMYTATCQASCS

Compound | pEC50
CC(C)(C)OC(=O)N[C@@H]1COC[C@@H]1n1c(Cc2cc(F)c(-c3cccc(OCc4ccc(C#N)cc4F)n3)cc2F)nc2ccc(C(=O)O)cc21 (racemic) [Example 72, 1-((3R,4S)-4-((tert-butoxycarbonyl)amino)tetrahydrofuran-3-yl)-2-(4-(6-((4-cyano-2-fluorobenzyl)oxy)pyridin-2-yl)-2,5-difluorobenzyl)-1H-benzo[d]imidazole-6-carboxylic Acid] | 7.43

Same assay, conditions: cAMP increase in CHO cells stably expressing GLP-1R; each compound run on one of the two cAMP assays (Assay 1 or Assay 2, not specified)

Compound | pEC50
C[C@H]1OCC[C@H]1n1c(Cc2cc(F)c(-c3cccc(OCc4ccc(C#N)cc4F)n3)cc2F)nc2ccc(C(=O)O)cc21 (racemic) [Example 73, 2-(4-(6-((4-cyano-2-fluorobenzyl)oxy)pyridin-2-yl)-2,5-difluorobenzyl)-1-((2R,3R)-2-methyltetrahydrofuran-3-yl)-1H-benzo[d]imidazole-6-carboxylic Acid] | 8.62
CNC(=O)[C@@H]1COC[C@@H]1n1c(Cc2cc(F)c(-c3cccc(OCc4ccc(C#N)cc4F)n3)cc2F)nc2ccc(C(=O)O)cc21 (racemic) [Example 75, 2-(4-(6-((4-cyano-2-fluorobenzyl)oxy)pyridin-2-yl)-2,5-difluorobenzyl)-1-((3R,4S)-4-(methylcarbamoyl)tetrahydrofuran-3-yl)-1H-benzo[d]imidazole-6-carboxylic Acid] | 7.81
CN(C)C(=O)[C@@H]1COC[C@@H]1n1c(Cc2cc(F)c(-c3cccc(OCc4ccc(C#N)cc4F)n3)cc2F)nc2ccc(C(=O)O)cc21 (racemic) [Example 76, 2-(4-(6-((4-cyano-2-fluorobenzyl)oxy)pyridin-2-yl)-2,5-difluorobenzyl)-1-((3R,4S)-4-(dimethylcarbamoyl)tetrahydrofuran-3-yl)-1H-benzo[d]imidazole-6-carboxylic Acid] | 7.00
N#Cc1ccc(COc2cccc(-c3cc(F)c(Cc4nc5ccc(C(=O)O)cc5n4[C@@H]4COC[C@H]4F)cc3F)n2)c(F)c1 (racemic) [Example 77, 2-(4-(6-((4-cyano-2-fluorobenzyl)oxy)pyridin-2-yl)-2,5-difluorobenzyl)-1-((3R,4S)-4-fluorotetrahydrofuran-3-yl)-1H-benzo[d]imidazole-6-carboxylic Acid] | 8.72
COC[C@H]1COC[C@H]1n1c(Cc2cc(F)c(-c3cccc(OCc4ccc(C#N)cc4F)n3)cc2F)nc2ccc(C(=O)O)cc21 (racemic) [Example 184, 2-(4-(6-((4-cyano-2-fluorobenzyl)oxy)pyridin-2-yl)-2,5-difluorobenzyl)-1-((3S,4S)-4-(methoxymethyl)tetrahydrofuran-3-yl)-1H-benzo[d]imidazole-6-carboxylic Acid] | 9.80
N#Cc1ccc(COc2cccc(-c3cc(F)c(Cc4nc5ccc(C(=O)O)cc5n4C4COC[C@@H]4CO)cc3F)n2)c(F)c1 (mixture of isomers) [Example 216, 2-(4-(6-((4-cyano-2-fluorobenzyl)oxy)pyridin-2-yl)-2,5-difluorobenzyl)-1-((3S,4S)-4-(hydroxymethyl)tetrahydrofuran-3-yl)-1H-benzo[d]imidazole-6-carboxylic acid] | 10.25
N#Cc1ccc(COc2cccc(-c3cc(F)c(Cc4nc5ccc(C(=O)O)cc5n4C4COC[C@H]4CO)cc3F)n2)c(F)c1 (mixture of isomers) [Example 217, 2-(4-(6-((4-cyano-2-fluorobenzyl)oxy)pyridin-2-yl)-2,5-difluorobenzyl)-1-((3S,4R)-4-(hydroxymethyl)tetrahydrofuran-3-yl)-1H-benzo[d]imidazole-6-carboxylic acid] | 8.96
CO[C@@H]1COCC1n1c(Cc2cc(F)c(-c3cccc(OCc4ccc(C#N)cc4F)n3)cc2F)nc2c(F)cc(C(=O)O)cc21 (mixture of isomers) [Example 256, 2-(4-(6-((4-cyano-2-fluorobenzyl)oxy)pyridin-2-yl)-2,5-difluorobenzyl)-4-fluoro-1-((4S)-4-methoxytetrahydrofuran-3-yl)-1H-benzo[d]imidazole-6-carboxylic acid] | 9.93
C[C@@H]1COC[C@H]1n1c(Cc2cc(F)c(-c3cccc(OCc4ccc(C#N)cc4F)n3)cc2F)nc2ccc(C(=O)O)cc21 (racemic) [Example 266, 2-(4-(6-((4-cyano-2-fluorobenzyl)oxy)pyridin-2-yl)-2,5-difluorobenzyl)-1-((3S,4S)-4-methyltetrahydrofuran-3-yl)-1H-benzo[d]imidazole-6-carboxylic acid] | 9.44
N#Cc1ccc(COc2cccc(-c3cc(F)c(Cc4nc5ccc(C(=O)O)cc5n4[C@@H]4COC[C@@H]4C(F)F)cc3F)n2)c(F)c1 (racemic) [Example 267, 2-(4-(6-((4-cyano-2-fluorobenzyl)oxy)pyridin-2-yl)-2,5-difluorobenzyl)-1-((4R)-4-(difluoromethyl)tetrahydrofuran-3-yl)-1H-benzo[d]imidazole-6-carboxylic acid] | 10.26
N#Cc1ccc(COc2cccc(-c3cc(F)c(Cc4nc5ccc(C(=O)O)cc5n4[C@@H]4COC[C@H]4C(F)F)cc3F)n2)c(F)c1 (racemic) [Example 269, 2-(4-(6-((4-cyano-2-fluorobenzyl)oxy)pyridin-2-yl)-2,5-difluorobenzyl)-1-((3S,4S)-4-(difluoromethyl)tetrahydrofuran-3-yl)-1H-benzo[d]imidazole-6-carboxylic acid] | 9.79
CC12CC(n3c(Cc4cc(F)c(-c5cccc(OCc6ccc(C#N)cc6F)n5)cc4F)nc4ccc(C(=O)O)cc43)(CO1)C2 (racemic) [Example 270, 2-(4-(6-((4-cyano-2-fluorobenzyl)oxy)pyridin-2-yl)-2,5-difluorobenzyl)-1-((1s,4s)-1-methyl-2-oxabicyclo[2.1.1]hexan-4-yl)-1H-benzo[d]imidazole-6-carboxylic acid] | 5.22
N#Cc1ccc(COc2cccc(-c3cc(F)c(Cc4nc5ccc(C(=O)O)cc5n4C[C@@]45CO[C@@H](CCO4)C5)cc3F)n2)c(F)c1 (racemic) [Example 272, 1-(((5S)-2,6-dioxabicyclo[3.2.1]octan-1-yl)methyl)-2-(4-(6-((4-cyano-2-fluorobenzyl)oxy)pyridin-2-yl)-2,5-difluorobenzyl)-1H-benzo[d]imidazole-6-carboxylic acid] | 8.68
O=C(O)c1ccc2nc(Cc3cc(F)c(-c4cccc(OCc5ccc(Cl)cc5F)n4)cc3F)n(C3COC4CC3C4)c2c1 (racemic) [Example 407, 1-((4R)-2-oxabicyclo[3.1.1]heptan-4-yl)-2-(4-(6-((4-chloro-2-fluorobenzyl)oxy)pyridin-2-yl)-2,5-difluorobenzyl)-1H-benzo[d]imidazole-6-carboxylic acid] | 9.38
N#Cc1ccc(COc2cccc(-c3cc(F)c(Cc4nc5ccc(C(=O)O)cc5n4[C@@H]4COC[C@@H]4OC4CC4)cc3F)n2)c(F)c1 (racemic) [Example 411, 2-(4-(6-((4-cyano-2-fluorobenzyl)oxy)pyridin-2-yl)-2,5-difluorobenzyl)-1-((3R,4R)-4-cyclopropoxytetrahydrofuran-3-yl)-1H-benzo[d]imidazole-6-carboxylic acid] | 8.88
N#Cc1ccc(COc2cccc(-c3cc(F)c(Cc4nc5ccc(C(=O)O)cc5n4[C@@H]4COC[C@@H]4OCC(F)F)cc3F)n2)c(F)c1 (racemic) [Example 412, 2-(4-(6-((4-cyano-2-fluorobenzyl)oxy)pyridin-2-yl)-2,5-difluorobenzyl)-1-((3R,4R)-4-(2,2-difluoroethoxy)tetrahydrofuran-3-yl)-1H-benzo[d]imidazole-6-carboxylic acid] | 9.34
C[C@@H]1COC[C@@H]1n1c(Cc2cc(F)c(-c3cccc(OCc4ccc(C#N)cc4F)n3)cc2F)nc2ccc(C(=O)O)cc21 (racemic) [Example 505, 2-(4-(6-((4-cyano-2-fluorobenzyl)oxy)pyridin-2-yl)-2,5-difluorobenzyl)-1-((3R,4S)-4-methyltetrahydrofuran-3-yl)-1H-benzo[d]imidazole-6-carboxylic acid] | 10.37
Cn1cc(-c2cc(F)c(COc3cccc(-c4cc(F)c(Cc5nc6ccc(C(=O)O)cc6n5[C@@H]5COCC5(C)C)cc4F)n3)cn2)cn1 (single isomer, unassigned) [Example 58] | 9.24
COC[C@H]1COC[C@H]1n1c(Cc2cc(F)c(-c3cccc(OCc4ccc(C#N)cc4F)n3)cc2F)nc2ccc(C(=O)O)cc21 (single isomer, unassigned) [Example 176A] | 10.07
COC[C@@H]1COC[C@@H]1n1c(Cc2cc(F)c(-c3cccc(OCc4ccc(C#N)cc4F)n3)cc2F)nc2ccc(C(=O)O)cc21 (single isomer, unassigned) [Example 176B] | 9.13
N#Cc1ccc(COc2cccc(-c3cc(F)c(Cc4nc5ccc(C(=O)O)cc5n4[C@@H]4COC[C@@H]4C(F)F)cc3F)n2)c(F)c1 (single isomer, unassigned) [Example 233] | 8.51
N#Cc1ccc(COc2cccc(-c3cc(F)c(Cc4nc5ccc(C(=O)O)cc5n4[C@H]4COC[C@H]4C(F)F)cc3F)n2)c(F)c1 (single isomer, unassigned) [Example 234] | 9.35
CO[C@H]1COCC1n1c(Cc2cc(F)c(-c3cccc(OCc4ccc(C#N)cc4F)n3)cc2F)nc2c(F)cc(C(=O)O)cc21 (single isomer, unassigned) [Example 238] | 10.00
